Patent US11471463B2, “Enhancers of cellular cannibalism for use to sensitize tumors to radiation therapy” (Institut Gustave-Roussy, priority 2017, dated 2022)
Entries after “also recorded” stand apart in the source; their conditions may differ. Where a name gives a salt, the structure may show the parent alone.

Tests used:
HCT116 cells = experiment: Screening for enhancers of IR-mediated cellular cannibalism (imaging flow cytometry, confocal microscopy validation); format: cell-based, human; conditions: 8 Gray, 10 μM compound, 24 hours of culture
Method: FIG. 4 Identification of cannibalism modulators triggered by ionizing radiation. Compounds from the Prestwick (A) and CEA (F) libraries were tested for their capacities to induce cellular cannibalism after ionizing radiation. Cannibal cells were detected after homotypic cultures of 8 gray γ-irradiation HCT116 cells in the presence or absence of […] of the Prestwick (A) and CEA […] library compounds. Each dot represents one compound. Representative images are shown in (B, G). (C, H) HCT116 cells were treated with the indicated drugs. After 24 h of treatment, cell death was monitored by staining with 3,3 dihexyloxacarbocyanine iodide (DiOC6(3)) and PI, and the percentage of dying (DiOC6(3)^low PI^−, open bars) and dead (DiOC6(3)^low PI^+, closed bars) cells was determined by cytofluorometry. Validation of the cannibalism inducers by fluorescent microscopy. Representative images (D, I) and quantification (E, J) are shown. Results are means±s.e.m. of triplicate determinations.
Then, the screening of a library of chemical compounds was developed in order to identify compounds able to induce IR-mediated cellular cannibalism. Thus, HCT116 cells that have been treated with a radiation dose of 8 Gray were stained either with orange CMTMR cell tracker or green CMFDA cell tracker and cultivated in presence of 10 μM of chemical compounds. After 24 hours of culture, cells have been stained with nuclear dye (5 μg/ml of Hoechst 33342 during 1 h at 37° C.) and analyzed using the FlowSight® Imaging Flow Cytometer for cellular cannibalism. Each of these compounds were classified according to their Z-score^47 and identified respectively 13 and 11 candidate compounds (FIGS. 4A, 4B, 4F and 4G). Then, the identified compounds were validated by combining flow cytometry approaches (in order to eliminate cytotoxic compounds by simultaneously monitoring the depolarization of the internal mitochondrial membrane and the plasma membrane permeability of the treated cells) with confocal microscopy approaches (to confirm the modulation of IR-induced cellular cannibalism by candidate compounds) (FIGS. 4C-E and 4H-J). […] Finally, 16 chemical compounds that are able to enhance the capacity of IR to trigger cellular cannibalism were identified (FIGS. 4E and 4J, Tables 1&2).

CT26 cells = experiment: Anti-tumor vaccination assay, treated CT26 cells inoculated into BALB/c mice and rechallenge; format: in vivo, mouse; conditions: for Protective response after injection of cancer cells, compound alone: CT26 cells treated with 10 μM compound alone (no IR); for Frequency of mice showing a protective response: 8 Gy in presence of 10 μM compound for 24 hours
Method: FIG. 5. Identification of cannibalism modulators as immunogenic cell death inducers. MCA205 (A) or CT26 (E, I, M, Q) cells were treated with the indicated drugs. After 24 h of coculture with the indicated treatment, cell death was monitored by staining DiOC6(3) and PI, and the percentage of dying (DiOC6(3)^low PI^−, open bars) and dead (DiOC6(3)^low PI^+, closed bars) cells was determined by cytofluorometry. (B-D) MCA205 cells or (F-H, J-L, N-P, R-T) CT26 cells cocultured after x irradiation with the indicated compounds were inoculated subcutaneously into the right flank of […] or BALB/c mice, respectively. Seven days later, the mice were rechallenged with live cells injected into the opposite flank, and tumor growth was monitored (five mice per group).
FIG. 6. Tumor vaccination experiments. CT26 cells were treated for 24 hours with 10 μM VP331 (A, F, K), 10 μM Minaprine (B, G, L), 10 μM Lopa87 (C, H, M), 10 μM SG6163F (D, I, N), 10 μM Azaguanine-8 (8-aza) (E, J, O) alone or combined with 8 Gy ionizing radiation and inoculated (s.c.) into immunocompetent BALB/c mice, which were rechallenged at the opposite flank 7 days later with the same cancer cells. The percentage of tumor-free mice was evaluated three times a week for the following 38 days. Percentage of total tumor free mice (A-E), tumor free-mice at the first injection site (F to J, P) or at the second injection site (K to O, Q) are shown. (*P<0.05, **P<0.01, ***P<0.001, two-way ANOVA).
Considering that immunogenic cell death (ICD) inducers were identified (such as Digoxin, Digitoxin, Lanatoside C or Doxorubicin hydrochloride)^3, 4, 48-51) as IRCCE, the ability of these compounds to induce an antitumor immunity after radiotherapy was evaluated. First, a preclinical approaches was developed to study the immunological effects of IRCCE on two mouse models of carcinoma (colon CT26 carcinoma and fibrosarcoma MCA205). Initially, the ability of the combination of IRCCE+IR to trigger a specific anti-tumor immune response was appreciated using immunocompetent mice through anti-tumor vaccination assays. According to previously published studies^52, the injection of cancer cells succumbing to an immunogenic cell death (ICD) into immunocompetent mice must elicit a protective immune response that is specific for tumor antigens. Thus, 3×10^5 MCA205 cells were first treated with 10 μM of SG6163F for 24 hours. Then, treated cells were inoculated subcutaneously in 200 μl PBS into the lower flank of 8-week-old female C57BL/6 mice. One week later, 3×10^4 untreated control cells were inoculated into the contralateral flank of mice. Tumors were evaluated weekly using a common caliper. Animals bearing tumors that exceeded 20-25% body mass were euthanatized. […] Then, 3×10^6 CT26 cells were irradiated with 8 Gy in presence of 10 μM of SG6163F (FIGS. 5E and 5F), VP331 (FIGS. 5I and 5J), Minaprine dihydrochloride (FIGS. 5M and 5N) or LOPA87 (FIGS. 5Q and 5R) for 24 hours. Then, cells were inoculated as previously described subcutaneously in 200 μl PBS into the lower flank of 8-week-old female BALB/c mice. One week later, 5×10^5 untreated control cells were inoculated into the contralateral flank of mice and tumors were evaluated weekly using a common caliper. As previously mentioned, animals bearing tumors that exceeded 20-25% body mass were euthanatized. The percentage of dying cells in each condition was evaluated by determining with DiOC(6)3/IP staining (FIGS. 5E, 5I, 5M and 5Q). Finally, the ability of these compounds to repress the growth of cancer cells that have been injected 7 days after injection of irradiated and treated cancer cells was appreciated.
A second anti-tumor vaccination assay was done on CT26 mouse models of carcinoma as previously described. […]

[1] = second assay: CT26 cells, rechallenge 7 days later
[2] = first assay: CT26 cells, rechallenge one week later

Compound	Enhancement of IR-mediated cellular cannibalism (IRCCE) (HCT116 cells)	other results
Nc1nc2[nH]nnc2c(=O)[nH]1 [8-Azaguanine]	efficient cellular cannibalism enhancer	Protective response after injection of cancer cells, compound alone (CT26 cells): induce an increase of protective response; Frequency of mice showing a protective response (CT26 cells; [1]): Significant increases in the frequency of mice showing a protective response
CCOC(=O)n1ccn(C)c1=S [Carbimazole]	no effect	–
C[C@H]1O[C@@H](O[C@H]2[C@@H](O)C[C@H](O[C@H]3[C@@H](O)C[C@H](O[C@H]4CC[C@@]5(C)[C@H](CC[C@@H]6[C@@H]5CC[C@]5(C)[C@@H](C7=CC(=O)OC7)CC[C@]65O)C4)O[C@@H]3C)O[C@@H]2C)C[C@H](O)[C@@H]1O [Digitoxin]	IRCCE; also recorded: efficient cellular cannibalism enhancer	–
C[C@H]1O[C@@H](O[C@H]2[C@@H](O)C[C@H](O[C@H]3[C@@H](O)C[C@H](O[C@H]4CC[C@@]5(C)[C@H](CC[C@@H]6[C@@H]5C[C@@H](O)[C@]5(C)[C@@H](C7=CC(=O)OC7)CC[C@]65O)C4)O[C@@H]3C)O[C@@H]2C)C[C@H](O)[C@@H]1O [Digoxin]	IRCCE; also recorded: efficient cellular cannibalism enhancer	–
COc1cccc2c1C(=O)c1c(O)c3c(c(O)c1C2=O)C[C@@](O)(C(=O)CO)C[C@@H]3O[C@H]1C[C@H](N)[C@H](O)[C@H](C)O1.Cl [Doxorubicine hydrochloride, Doxorubicin hydrochloride]	–	Enhancement of IR-mediated cellular cannibalism (IRCCE) (HCT116 cells; hydrochloride): efficient cellular cannibalism enhancer; Enhancement of IR-mediated cellular cannibalism (IRCCE) (HCT116 cells; listed as Doxorubicin hydrochloride, hydrochloride): IRCCE
COC(=O)Nc1nc2ccc(Sc3ccccc3)cc2[nH]1 [Fenbendazol]	no effect	–
CC(C(=O)O)c1ccc(-c2ccccc2)c(F)c1 (stereo not drawn) [Flurbiprofen]	efficient cellular cannibalism enhancer	–
CN(C)c1ccc(-c2cc(=O)[nH]c(-c3ccccc3)n2)cc1 [LOPA87]	efficient cellular cannibalism enhancer	Frequency of mice showing a protective response (CT26 cells; [2]): significant increase in the frequency of mice showing a protective response; Frequency of mice showing a protective response (CT26 cells; [1]): Significant increases in the frequency of mice showing a protective response
CC(=O)O[C@H]1C[C@H](O[C@H]2[C@@H](O)C[C@H](O[C@H]3[C@@H](O)C[C@H](O[C@H]4CC[C@@]5(C)[C@H](CC[C@@H]6[C@@H]5C[C@@H](O)[C@]5(C)[C@@H](C7=CC(=O)OC7)CC[C@]65O)C4)O[C@@H]3C)O[C@@H]2C)O[C@H](C)[C@H]1O[C@@H]1O[C@H](CO)[C@@H](O)[C@H](O)[C@H]1O [Lanatoside, Lanatoside C]	efficient cellular cannibalism enhancer	Enhancement of IR-mediated cellular cannibalism (IRCCE) (HCT116 cells; listed as Lanatoside C): IRCCE
CN1CCc2c(c3ccccc3n2Cc2ccccc2)C1 [Mebhydroline 1,5-napthalene disulfonate salt]	efficient cellular cannibalism enhancer	–
Cc1cc(-c2ccccc2)nnc1NCCN1CCOCC1.Cl.Cl [Minaprine dihydrochloride]	efficient cellular cannibalism enhancer	Protective response after injection of cancer cells, compound alone (CT26 cells; dihydrochloride): induce an increase of protective response; also recorded: intrinsic protective effects against tumor development; Frequency of mice showing a protective response (CT26 cells; [2]): significant increase in the frequency of mice showing a protective response; Frequency of mice showing a protective response (CT26 cells; [1]): Significant increases in the frequency of mice showing a protective response
COc1cc(O)ccc1/C=N/c1ccccc1C(=O)Nc1ccccc1 [RN-1-026]	efficient cellular cannibalism enhancer	–
CN1c2ccccc2C(=O)N(c2ccccc2)C1c1ccc(-c2csc(CO)c2)s1 (stereo not drawn) [VP43]	efficient cellular cannibalism enhancer	–
COc1ccc(C)cc1/C=N/[C@@H]1C[C@@H]2C[C@H]([C@H]1C)C2(C)C [VP331]	efficient cellular cannibalism enhancer	Frequency of mice showing a protective response (CT26 cells; [2]): significant increase in the frequency of mice showing a protective response; Frequency of mice showing a protective response (CT26 cells; [1]): Significant increases in the frequency of mice showing a protective response
O=C(N/N=C/c1ncc[nH]1)NC12CC3CC(CC(C3)C1)C2 [VP450]	efficient cellular cannibalism enhancer	–
Myricetin	efficient cellular cannibalism enhancer	–
